According to publication PMC8482877 (Biochemical and biophysical research communications, 2020):

Experiments:
[1] = system: BHK cells expressing ABCA1; assay: Radiolabeled cholesterol efflux from ABCA1-BHK cells; assay type: cell-based; conditions: [3H]-cholesterol transferred from ABCA1-BHK cells to serum free medium containing peptides over 18 h; triplicates
[2] = Solubilization of DMPC lipid vesicles by peptides; assay type: physicochemical; conditions: DMPC vesicles 1 mg/mL in PBS, peptide 0.1 mg/mL, 24 °C, 660 nm

## VLESFKVSFLSALEEYTKKLNT
[1]
  ABCA1-mediated cholesterol efflux: almost completely inactive
[2]
  DMPC vesicle solubilization, comparison between peptides: less effective than the other active peptides
